Results as given in patent US10722514B2 (FLX Bio, Inc., priority 2017, dated 2020).
Counter-ions that a name gives are not always drawn. Like-named read-outs stand apart in the source and are kept apart here.

Target: T1, recombinant full-length USP7 (Homo sapiens, UniProt Q93009)
T1 construct: A 25 μl reaction volume containing recombinant full-length USP7 (62 pM)
Assay: USP7-mediated ubiquitin-rhodamine cleavage assay
Assay type: biochemical
Settings: recombinant full-length USP7 62 pM, ubiquitin-rhodamine 100 nM, 1 hour reaction at room temperature
Outline: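 After compound and enzyme (62 pM) sat together 30 min at RT, 100 nM fluorogenic ubiquitin-rhodamine substrate was added for 1 h protected from light. Acetic acid quenched the reaction prior to the fluorescence read.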

[1] = 30-minute incubation with compound, read-out: Potency: USP7 IC50
[2] = 30-minute pre-incubation, read-out: Potency (USP7 IC50)

T1 sequence (Q93009 whole entry): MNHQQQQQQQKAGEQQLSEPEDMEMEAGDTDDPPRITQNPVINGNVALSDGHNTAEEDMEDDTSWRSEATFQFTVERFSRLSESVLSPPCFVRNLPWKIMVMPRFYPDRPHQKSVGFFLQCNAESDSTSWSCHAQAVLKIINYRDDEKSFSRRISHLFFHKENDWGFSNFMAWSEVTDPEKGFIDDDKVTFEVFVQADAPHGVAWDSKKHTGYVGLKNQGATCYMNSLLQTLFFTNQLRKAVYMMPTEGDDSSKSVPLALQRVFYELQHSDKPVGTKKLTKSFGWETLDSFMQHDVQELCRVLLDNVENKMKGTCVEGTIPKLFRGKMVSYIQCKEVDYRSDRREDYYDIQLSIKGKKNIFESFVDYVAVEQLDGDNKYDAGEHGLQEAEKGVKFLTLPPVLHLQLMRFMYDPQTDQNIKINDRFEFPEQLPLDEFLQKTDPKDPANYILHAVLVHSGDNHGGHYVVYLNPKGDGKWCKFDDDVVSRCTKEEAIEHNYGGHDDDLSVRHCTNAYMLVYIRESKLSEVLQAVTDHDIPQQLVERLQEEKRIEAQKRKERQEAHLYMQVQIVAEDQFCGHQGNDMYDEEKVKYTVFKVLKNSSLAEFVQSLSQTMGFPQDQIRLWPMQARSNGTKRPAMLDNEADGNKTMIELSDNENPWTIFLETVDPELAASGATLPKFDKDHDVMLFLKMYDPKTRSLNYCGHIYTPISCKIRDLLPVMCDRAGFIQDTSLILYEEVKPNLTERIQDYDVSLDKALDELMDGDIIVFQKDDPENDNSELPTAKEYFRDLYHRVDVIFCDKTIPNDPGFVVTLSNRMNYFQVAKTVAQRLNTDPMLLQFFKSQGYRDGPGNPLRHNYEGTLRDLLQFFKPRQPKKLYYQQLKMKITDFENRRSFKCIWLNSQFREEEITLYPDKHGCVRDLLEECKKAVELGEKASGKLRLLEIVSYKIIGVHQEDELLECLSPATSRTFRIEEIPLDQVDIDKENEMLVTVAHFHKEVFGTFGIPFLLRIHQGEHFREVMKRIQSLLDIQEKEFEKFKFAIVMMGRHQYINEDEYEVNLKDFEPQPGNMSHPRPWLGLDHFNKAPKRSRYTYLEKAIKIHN

IC50 [1] [nM] | SMILES | other results
< 1000 | Cc1cc(Cl)cc(-c2ccnc3cc(CN4C(=O)C5C(C4=O)C5(C)C)sc23)c1O[C@@H]1CCNC[C@@H]1F (stereo partly drawn) [Example 391, 3-[[7-[5-chloro-2-[[(3S,4R)-3-fluoro-4-piperidyl]oxy]-3-methyl-phenyl]thieno[3,2-b]pyridin-2-yl]methyl]-6,6-dimethyl-3-azabicyclo[3.1.0]hexane-2,4-dione; 2,2,2-trifluoroacetic acid] | –
< 1000 | Cc1cc(Cl)cc(-c2ncnc3cc(CN4C(=O)C5C(C4=O)C5(C)C)sc23)c1O[C@@H]1CNC[C@@H]1C (stereo partly drawn) [Example 349, 3-[[4-[5-chloro-3-methyl-2-[(3S,4S)-4-methylpyrrolidin-3-yl]oxy-phenyl]thieno[3,2-d]pyrimidin-6-yl]methyl]-6,6-dimethyl-3-azabicyclo[3.1.0]hexane-2,4-dione] | –
< 1000 | Cc1cc(Cl)cc(-c2ccnc3cc(CN4C(=O)C5C(C4=O)C5(C)C)sc23)c1O[C@@H]1CNCC[C@@H]1C (stereo partly drawn) [Example 340, 3-[[7-[5-chloro-3-methyl-2-[[(3S,4S)-4-methyl-3-piperidyl]oxy]phenyl]thieno[3,2-b]pyridin-2-yl]methyl]-6,6-dimethyl-3-azabicyclo[3.1.0]hexane-2,4-dione] | –
< 1000 | Cc1cc(Cl)cc(-c2ncnc3cc(CN4C(=O)C5C(C4=O)C5(C)C)sc23)c1O[C@@H]1CNCC(C)(C)C1 (stereo partly drawn) [Example 361, 3-[[4-[5-chloro-2-[[(3S)-5,5-dimethyl-3-piperidyl]oxy]-3-methyl-phenyl]thieno[3,2-d]pyrimidin-6-yl]methyl]-6,6-dimethyl-3-azabicyclo[3.1.0]hexane-2,4-dione] | –
< 1000 | CCC1(C)CC(=O)N(Cc2cc3ncnc(-c4cc(Cl)cc(C)c4O[C@@H]4CNC[C@@H]4F)c3s2)C1=O (stereo partly drawn) [Example 381, 1-[[4-[5-chloro-2-[(3R,4S)-4-fluoropyrrolidin-3-yl]oxy-3-methyl-phenyl]thieno[3,2-d]pyrimidin-6-yl]methyl]-3-ethyl-3-methyl-pyrrolidine-2,5-dione; 2,2,2-trifluoroacetic acid] | –
< 1000 | CCN1C[C@H]2C[C@@H]1[C@H](Oc1c(C)cc(Cl)cc1-c1ncnc3cc(CN4C(=O)C5C(C4=O)C5(C)C)sc13)C2 (stereo partly drawn) [Example 356, 3-[[4-[5-chloro-2-[[(1S,4R,5R)-3-ethyl-3-azabicyclo[2.2.1]heptan-5-yl]oxy]-3-methyl-phenyl]thieno[3,2-d]pyrimidin-6-yl]methyl]-6,6-dimethyl-3-azabicyclo[3.1.0]hexane-2,4-dione dihydrochloride] | –

Further lines, the compound ahead of its results:

SMILES | IC50 [1] [nM] | other results
Cc1cc(Cl)cc(-c2ccnc3cc(Cn4c(=O)ccn(C)c4=O)sc23)c1OCC1(C(F)F)CNC1 [Example 533, 3-[[7-[5-chloro-2-[[3-(difluoromethyl)azetidin-3-yl]methoxy]-3-methyl-phenyl]thieno[3,2-b]pyridin-2-yl]methyl]-1-methyl-pyrimidine-2,4-dione] | – | IC50 [2]: < 1000 nM
Cc1cc(Cl)cc(-c2ccnc3cc(CN4C(=O)CCC4=O)sc23)c1O[C@H]1CCNC[C@@H]1F [Example 208, 1-((7-(5-Chloro-2-(((3S,4S)-3-fluoropiperidin-4-yl)oxy)-3-methylphenyl)thieno[3,2-b]pyridin-2-yl)methyl)pyrrolidine-2,5-dione] | < 1000 | –
Cc1cc(Cl)cc(-c2ccnc3cc(Cn4c(=O)ccn(C)c4=O)sc23)c1O[C@H]1CCN(C)C(C)(C)C1 [Example 490] | – | IC50 [2]: < 1000 nM
CCn1ccc(=O)n(Cc2cc3nccc(-c4cc(Cl)cc(C)c4O[C@@H]4CNC[C@@H]4F)c3s2)c1=O [Example 452, 3-[[7-[5-chloro-2-[(3R,4S)-4-fluoropyrrolidin-3-yl]oxy-3-methyl-phenyl]thieno[3,2-b]pyridin-2-yl]methyl]-1-ethyl-pyrimidine-2,4-dione] | – | IC50 [2]: < 1000 nM
Cc1cc(Cl)cc(-c2ccnc3cc(CN4C(=O)CCC4=O)sc23)c1O[C@@H]1CN[C@H](CO)C1 [Example 116, 1-((7-(5-Chloro-2-(((3S,5S)-5-(hydroxymethyl)pyrrolidin-3-yl)oxy)-3-methylphenyl)thieno[3,2-b]pyridin-2-yl)methyl)pyrrolidine-2,5-dione] | < 1000 | –
Cc1cc(Cl)cc(-c2ccnc3cc(Cn4c(=O)ccn(CC(F)(F)F)c4=O)sc23)c1O[C@H]1CNCC[C@H]1C [Example 280, 3-((7-(5-Chloro-3-methyl-2-(((3R,4R)-4-methylpiperidin-3-yl)oxy)phenyl)thieno[3,2-b]pyridin-2-yl)methyl)-1-(2,2,2-trifluoroethyl)pyrimidine-2,4(1H,3H)-dione] | < 1000 | –
Cc1cc(C#N)cc(-c2ncnc3cc(CN4C(=O)CCC4=O)sc23)c1O[C@@H]1CNC[C@@H]1F [Example 109, 3-(6-((2,5-Dioxopyrrolidin-1-yl)methyl)thieno[3,2-d]pyrimidin-4-yl)-4-(((3R,4S)-4-fluoropyrrolidin-3-yl)oxy)-5-methylbenzonitrile] | < 1000 | –
Cc1cc(Cl)cc(-c2ccnc3cc(Cn4c(=O)ccn(CC(F)(F)F)c4=O)sc23)c1OC1CC(N2CCOC[C@H]2C)C1 (stereo partly drawn) [Example 657, 3-[[7-[5-chloro-3-methyl-2-[3-[(3R)-3-methylmorpholin-4-yl]cyclobutoxy]phenyl]thieno[3,2-b]pyridin-2-yl]methyl]-1-(2,2,2-trifluoroethyl)pyrimidine-2,4-dione; 2,2,2-trifluoroacetic acid] | – | IC50 [2]: < 1000 nM
Cc1cc(Cl)cc(-c2ccnc3cc(CN4C(=O)C5CCC5C4=O)sc23)c1O[C@H]1CCCNC1 (stereo partly drawn) [Example 297, 3-[[7-[5-chloro-3-methyl-2-[[(3S)-3-piperidyl]oxy]phenyl]thieno[3,2-b]pyridin-2-yl]methyl]-3-azabicyclo[3.2.0]heptane-2,4-dione; 2,2,2-trifluoroacetic acid] | < 1000 | –
Cc1cc(Cl)cc(-c2ccnc3cc(CO)sc23)c1O[C@@H]1CN[C@@H](C(C)(C)O)C1 [Example 71, 2-((2R,4S)-4-(4-Chloro-2-(2-(hydroxymethyl)thieno[3,2-b]pyridin-7-yl)-6-methylphenoxy)pyrrolidin-2-yl)propan-2-ol] | 10000 to 30000 | –
Cc1cc(Cl)cc(-c2ccnc3cc(Cn4c(=O)ccn(CC(F)(F)F)c4=O)sc23)c1O[C@@H]1C=C[C@@H](N)C1 [Example 630, 3-[[7-[2-[(1S,4S)-4-aminocyclopent-2-en-1-yl]oxy-5-chloro-3-methyl-phenyl]thieno[3,2-b]pyridin-2-yl]methyl]-1-(2,2,2-trifluoroethyl)pyrimidine-2,4-dione] | – | IC50 [2]: < 1000 nM
CCC(O)c1cc2ncnc(-c3cc(C#N)cc(C)c3O[C@@H]3CNC[C@@H]3F)c2s1 (stereo partly drawn) [Example 95, 4-(((3R,4S)-4-Fluoropyrrolidin-3-yl)oxy)-3-(6-(1-hydroxypropyl)thieno[3,2-d]pyrimidin-4-yl)-5-methylbenzonitrile] | < 1000 | –
Cc1cc(Cl)cc(-c2ccnc3cc(CN4C(=O)C5CCCN5C4=O)sc23)c1OC1CCNCC1 (stereo not drawn) [Example 218, 2-((7-(5-Chloro-3-methyl-2-(piperidin-4-yloxy)phenyl)thieno[3,2-b]pyridin-2-yl)methyl)tetrahydro-1H-pyrrolo[1,2-c]imidazole-1,3(2H)-dione] | 1000 to 10000 | –
Cc1cc(Cl)cc(-c2ccnc3ccsc23)c1OC1CCNCC1 [Example 180, 7-(5-Chloro-3-methyl-2-(piperidin-4-yloxy)phenyl)thieno[3,2-b]pyridine] | 10000 to 30000 | –
Cc1cc(Cl)cc(-c2ncnc3cc(Cn4c(=O)c(F)cn(C(C)C)c4=O)sc23)c1O[C@H]1CCCNC1 [Example 548, 3-[[4-[5-chloro-3-methyl-2-[[(3S)-3-piperidyl]oxy]phenyl]thieno[3,2-d]pyrimidin-6-yl]metthyl]-5-fluoro-1-isopropyl-pyrimidine-2,4-dione] | – | IC50 [2]: < 1000 nM
Cc1cc(Cl)cc(-c2ccnc3cc(Cn4c(=O)ccn(C)c4=O)sc23)c1OC1CNCC(F)(F)C1 (stereo not drawn) [Example 442, 3-[[7-[5-chloro-2-[(5,5-difluoro-3-piperidyl)oxy]-3-methyl-phenyl]thieno[3,2-b]pyridin-2-yl]methyl]-1-methyl-pyrimidine-2,4-dione; 2,2,2-trifluoroacetic acid] | – | IC50 [2]: < 1000 nM
Cc1cc(Cl)cc(-c2ncnc3cc(CN4C(=O)COC4=O)sc23)c1OC1CCNCC1 [Example 225, 3-((4-(5-Chloro-3-methyl-2-(piperidin-4-yloxy)phenyl)thieno[3,2-d]pyrimidin-6-yl)methyl)oxazolidine-2,4-dione] | 1000 to 10000 | –
Cc1cc(Cl)cc(-c2ncnc3cc(CN4C(=O)C5CC5C4=O)sc23)c1OC1CCNCC1 (stereo not drawn) [Example 231, 3-((4-(5-Chloro-3-methyl-2-(piperidin-4-yloxy)phenyl)thieno[3,2-d]pyrimidin-6-yl)methyl)-3-azabicyclo[3.1.0]hexane-2,4-dione] | 1000 to 10000 | –
Cc1cc(C#N)cc(-c2ncnc3ccsc23)c1OCC1(C)CNC1 [Example 24, 3-Methyl-4-((3-methylazetidin-3-yl)methoxy)-5-(thieno[3,2-d]pyrimidin-4-yl)benzonitrile] | 10000 to 30000 | –
Cc1cc(Cl)cc(-c2ccnc3cc(Cn4c(=O)ccn(C)c4=O)sc23)c1O[C@H]1CCN[C@@H](C)C1 [Example 593, 3-[[7-[5-chloro-3-methyl-2-[[(2S,4S)-2-methyl-4-piperidyl]oxy]phenyl]thieno[3,2-b]pyridin-2-yl]methyl]-1-methyl-pyrimidine-2,4-dione] | – | IC50 [2]: < 1000 nM
Cc1cc(Cl)cc(-c2ccnc3cc(Cn4c(=O)ccn(CC(F)(F)F)c4=O)sc23)c1OCCN1CCC1 [Example 701, 3-[[7-[2-[2-(azetidin-1-yl)ethoxy]-5-chloro-3-methyl-phenyl]thieno[3,2-b]pyridin-2-yl]methyl]-1-(2,2,2-trifluoroethyl)pyrimidine-2,4-dione; 2,2,2-trifluoroacetic acid] | – | IC50 (30-minute incubation, read-out: Potency (USP7 IC50)): < 1000 nM
